Source: paper PMC12005787, “Synthetic Lethality of SHP2 and XIAP Suppresses Proliferation and Metastasis in KRAS‐mutant Nonsmall Cell Lung Cancer” (Advanced Science, 2025)

Columns and labels:
[1] = tested on: SHP2 phosphorylation in HeLa cells; experiment: SHP2 phosphorylation in EGF-stimulated HeLa cells (immunoblotting); assay type: cell-based; conditions: for effect on the level of SHP2 phosphorylation: 20 µM for 2 h before EGF (10 ng mL^−1); for effect on EGF-induced phosphorylation of SHP2 (Y542 and Y580) and ERK: pretreatment 2 h, SHP099 20 µM, embelin different concentrations, EGF 10 ng mL^−1 2 h
Description: Figure 1 Embelin inhibits KRAS‐mutant tumor development. A) Correlation detection between mRNA expression of PTPN11 and KRAS in patients with LUAD (n = 706) using IlluminaHiSeq analysis with data derived from TCGA database. B) Correlation and number at risk of SHP2 expression with the overall survival probability of KRAS mutant lung cancer patients (n = 92) in the TCGA database. C) Protein expression and phosphorylation levels of SHP2 in RAS‐WT, NRAS, HRAS, and KRAS‐mutant cells. D) Effect of 3471 bioactive compounds at 10 µM against SHP2, with Na3VO4 serving as a control. Z’ factor values for 69 plates screened, Z’ = 0.81, S/N = 40.8. E) Binding energy between candidate drugs and SHP2 full‐length domain, catalytic region, and ΔSHP2 domain. F) HeLa cells were pretreated with DMSO, SHP099, or various compounds at 20 µM for 2 h before stimulation with EGF (10 ng mL^−1) for an additional 2 h. Cell lysates were subjected to immunoblotting with SHP2, p‐SHP2, and GAPDH antibodies. Data are from three independent experiments are presented. G) Spearman's correlation coefficient between drug‐related targets and KRAS mRNA in different types of tumors through the TCGA database. H) BCL2, TPO, RAF1, MCL1, MPL, and XIAP mRNA expression levels in LUAD tumors and adjacent tissues through the TCGA database. I) XIAP protein expression in RAS‐WT, NRAS‐mutant, HRAS‐mutant, and KRAS‐mutant cells. J) Effect of candidate drugs (10 µM) on colony formation in A549, NCI‐H2122, and NCI‐H1944 cells.
Figure 6 Embelin disrupts the SHP2 signaling complex in KRAS‐mutant NSCLC cells. A) HeLa cells were pretreated with SHP099 (20 µM) or different concentrations of embelin for 2 h and stimulated with EGF (10 ng mL^−1) for 2 h, the protein expression of RAS/MAPK signaling pathway in HeLa cells was detected. B) After treatment of embelin and SHP099 (10 µM) in NCI‐H2122 and A549 cells for 12 h, cell lysates were collected. One part was used to measure Gab1, Grb2, and SOS1 expression, and the other part underwent IP with SHP2 antibody. Then, binding of Gab1, Grb2, and SOS1 with SHP2 was detected. C) After treatment of embelin and SHP099 (10 µM) for 24 h, the expression of Gab1, p‐Gab1, Grb2, and SOS1 proteins in A549 and NCI‐H2122 cells were detected. […] Co‐localization of these proteins with SHP2 was detected using IF. […]
After given treatment, cells were lysed by ice bath with radio-immunoprecipitation assay (RIPA) buffer containing 1% phenylmethylsulphonyl fluoride (PMSF), and the supernatant was collected by centrifugation, and the protein concentration was subsequently determined using a BCA Protein Assay Kit. […]

NCI‐H2122 cells = experiment: Cell cycle assay; assay type: cell-based, human; conditions: embelin 15 µM or SHP099 10 µM for 72 h
Description: NCI-H2122 cells treated with given disposal were washed with pre-cooled PBS, fixed
with ice pre-cooled 70% ethanol at 4℃ for 2 h. And then PI staining solution (containing
RNaseA) was incubated in dark at 37℃ for 30 min. Red fluorescence and light scattering
were detected by flow cytometry at 488 nm. Cell cycle results were analyzed and visualized
using ModFit LT and FlowJo software. […]
(1 picture or pasted object on this page, not shown here)

NCI‐H2122 tumor = experiment: NCI-H2122 subcutaneous transplantation tumor model; assay type: in vivo, BALB/c‐nu mouse; conditions: i.p., q2d
Description: NCI‐H2122 cells in the logarithmic growth phase were collected by mixing serum‐free RMPI‐1640 medium and Matrigel matrix gel, and injected subcutaneously into the right axilla of thymus‐less male BALB/c‐nu nude mice. Tumor volume was calculated according to V = ab^2/2 (where a and b are the long and short diameters of the tumor, respectively), and body weight was recorded every 3 days. When the tumor volume reached 100 mm^3, the mice were randomly divided into six groups (ten mice in each group): Control group (i.p, q2d), SHP099 (20 mg kg^−1, i.p, q2d) group, GDC‐0152 (20 mg kg^−1, i.p, q2d) group, SHP099 (20 mg kg^−1, i.p, q2d) + GDC‐ 0152 (20 mg kg^−1, i.p, q2d) co‐administration group, embelin (20 mg kg^−1, i.p, q2d) medium‐dose group and embelin (30 mg kg^−1, i.p, q2d) high‐dose group. When the tumor volume reached 1000 mm^3, all experimental mice were sacrificed, and tumor tissues and major organs, such as the heart, liver, spleen, lungs, and kidneys, were collected for further study.

SMILES	effect on the level of SHP2 phosphorylation [1]	effect on cell cycle (NCI‐H2122 cells)	effect on body weight of the mice (NCI‐H2122 tumor)	effect on weights of hearts, livers, lungs, and kidneys and structure of hearts and kidneys (NCI‐H2122 tumor)	effect on tumor growth in vivo (NCI‐H2122 tumor; embelin 20 and 30 mg kg^−1, GDC‐0152 20 mg kg^−1 + SHP099 20 mg kg^−1)	effect on EGF-induced phosphorylation of SHP2 (Y542 and Y580) and ERK [1]
O=C1Nc2ccc(I)cc2/C1=C/c1cc(Br)c(O)c(Br)c1 [S2872, GW5074]	significantly inhibited SHP2 phosphorylation	–	–	–	–	–
CCCCCCCCCCCC1=C(O)C(=O)C=C(O)C1=O [Embelin]	significantly inhibited SHP2 phosphorylation	blocked the G2/M cycle	little or no effect on the body weight	no significant effect	significantly inhibited the tumor growth rate	significantly inhibited these phosphorylation levels
CC1(N)CCN(c2cnc(-c3cccc(Cl)c3Cl)c(N)n2)CC1 [SHP099]	–	had no effect	little or no effect on the body weight	no significant effect	–	significantly inhibited these phosphorylation levels
